The record followed here is ChEMBL document CHEMBL1201862, “PubChem BioAssay data set” (2004).

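Growth conditions: 96-well plates. Treatment: test compound, 48 hours, 5 concentrations. Analysis: linear interpolation between bracketing concentrations; unreached endpoints set to highest concentration. The concentration for 50% growth inhibition is given as GI50.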 The source made the active and inactive calls. Rule as the data show it: active = GI50 up to about 1.1 µM and inactive = higher. Bounds are passed on as bounds.

Assay in all cases: NCI-60 cell line screen, 48 h
The test system of assay [1] is SK-MEL-2.
For assay [2], the system named is MCF7.
The test system of assay [3] is KM12.
Assay [4] relates to UACC-62.
Assay [5] has as its system SNB-75.
Assay [6] concerns MDA-MB-231.
Assay [7] deals with SR.
In assay [8] the test system is COLO 205.
Assay [9] deals with A549.
The test system of assay [10] is Malme-3M.
For assay [11], the system named is A498.
Assay [12] has as its system SF-295.
In assay [13] the test system is HCT-15.
The subject of assay [14] is NCI-H226.
Assay [15] has as its system CCRF-CEM.
Assay [16] concerns LOX IMVI.
Assay [17] relates to OVCAR-4.
Assay [18] concerns HT-29.
The test system of assay [19] is ACHN.
Assay [20] relates to 786-0.

Regarding `C=CC(c1ccccc1)[C@@]1(OC(C)=O)C(=O)C(=O)OC1C1COC(C)(C)O1` (stereo not given in full), the GI50 in [1] is 16.4 µM (inactive); in assay [2], 5.68 µM (inactive); in [3], 15.2 µM (inactive); in [4] it was 14.1 µM (inactive); in [5] it was 14.5 µM (inactive); in assay [6] it was 14.4 µM (inactive). Moreover, the GI50 was 2.43 µM (inactive) in [7]; 8.26 µM (inactive) in [8]; 18 µM (inactive) in [9]; 15.2 µM (inactive) in assay [10]; 19.7 µM (inactive) in [11]; 16.7 µM (inactive) in [12]. Besides, the GI50 in [13] was 9.62 µM; in assay [14], 17.2 µM (inactive); in [15], 2.84 µM (inactive); in assay [16], 4.16 µM (inactive); in assay [17], 14.9 µM (inactive); in assay [18], 15.1 µM (inactive). Besides, the GI50 in [19] is 5.78 µM (inactive); in [20], 10.4 µM (inactive).
As to `Cc1ccc(C2NC(=O)c3ccccc3N2)c(C)c1` (stereo not given), the GI50 was 1.77 µM (inactive) in [1]; 1.07 µM (active) in [2]; 3.21 µM (inactive) in assay [3]; 1.26 µM (inactive) in assay [4]; 1.92 µM (inactive) in assay [5]; 7.4 µM (inactive) in assay [6]. The GI50 in assay [7] was 0.807 µM (active); in assay [8], 2.11 µM (inactive); in assay [9], 5.65 µM (inactive); in assay [10], 1.69 µM (inactive); in [11], 5.04 µM (inactive); in [12], 2.15 µM (inactive). Besides, the GI50 was 1.08 µM in assay [13]; 6.1 µM (inactive) in assay [14]; 1.63 µM (inactive) in [15]; 4.76 µM (inactive) in [16]; 2.68 µM (inactive) in assay [17]; 2.19 µM (inactive) in assay [18]. Moreover, the values for the GI50 in assay [19] and in [20] were 6.82 µM (inactive) and 3.97 µM (inactive), respectively.
For the molecule `CCOc1ccc(NC(=O)C(=O)C(/C(=N/N)C(=O)OC)c2nc3ccc([N+](=O)[O-])cc3nc2O)cc1` (stereo not given), the GI50 in assay [1], in assay [2], in assay [3], in [4], in [5] and in assay [6] was > 100 µM (inactive) each time. In addition, the GI50 in assay [7] is 70 µM (inactive); in assay [8], > 100 µM (inactive); in [9] it was > 100 µM (inactive); in assay [10], > 100 µM (inactive); in assay [11], > 100 µM (inactive); in assay [12] it was > 100 µM (inactive). Besides, the GI50 in [13] is > 100 µM; in [14], > 100 µM (inactive); in [15], > 100 µM (inactive); in assay [16], > 100 µM (inactive); in assay [17], > 100 µM (inactive); in assay [18], > 100 µM (inactive). For the same molecule, the GI50 in assay [19] and in assay [20] was > 100 µM (inactive) in each case.
